Measured values published in ChEMBL document CHEMBL5444388, “Affinity Phenotypic Cellular Literature for EUbOPEN Chemogenomic Library” (2024).

Legend:
Type in all cases: functional, cell-based
Set-up in all cases: recommended concentration 100 nM
[1] = target: Centromere-associated protein E (Homo sapiens) (UniProt Q02224); assay: Affinity Phenotypic Cellular interaction: (Cell-growth inhibition assays (growth inhibitory effect colon cancer cell line SW1417)) EUB0000734a CENPE; settings: Affinity Phenotypic Cellular Source Knowledge https://pubmed.ncbi.nlm.nih.gov/20167803/
[2] = target: Centromere-associated protein E (Homo sapiens) (UniProt Q02224); assay: Affinity Phenotypic Cellular interaction: (Cell-growth inhibition assays (growth inhibitory effect colon cancer cell line CML-T1)) EUB0000734a CENPE; settings: Affinity Phenotypic Cellular Source Knowledge https://pubmed.ncbi.nlm.nih.gov/20167803/
[3] = target: Centromere-associated protein E (Homo sapiens) (UniProt Q02224); assay: Affinity Phenotypic Cellular interaction: (Cell-growth inhibition assays (growth inhibitory effect colon cancer cell line 786-O)) EUB0000734a CENPE; settings: 786-0, Affinity Phenotypic Cellular Source Knowledge https://pubmed.ncbi.nlm.nih.gov/20167803/
[4] = target: Centromere-associated protein E (Homo sapiens) (UniProt Q02224); assay: Affinity Phenotypic Cellular interaction: (Cell-growth inhibition assays (growth inhibitory effect colon cancer cell line SF-268)) EUB0000734a CENPE; settings: Affinity Phenotypic Cellular Source Knowledge https://pubmed.ncbi.nlm.nih.gov/20167803/
[5] = target: Centromere-associated protein E (Homo sapiens) (UniProt Q02224); assay: Affinity Phenotypic Cellular interaction: (Cell-growth inhibition assays (growth inhibitory effect colon cancer cell line SW48)) EUB0000734a CENPE; settings: Affinity Phenotypic Cellular Source Knowledge https://pubmed.ncbi.nlm.nih.gov/20167803/
[6] = target: Centromere-associated protein E (Homo sapiens) (UniProt Q02224); assay: Affinity Phenotypic Cellular interaction: (Cell-growth inhibition assays (growth inhibitory effect colon cancer cell line MIA PaCa-2)) EUB0000734a CENPE; settings: Affinity Phenotypic Cellular Source Knowledge https://pubmed.ncbi.nlm.nih.gov/20167803/
[7] = target: Centromere-associated protein E (Homo sapiens) (UniProt Q02224); assay: Affinity Phenotypic Cellular interaction: (Cell-growth inhibition assays (growth inhibitory effect colon cancer cell line SN12C)) EUB0000734a CENPE; settings: Affinity Phenotypic Cellular Source Knowledge https://pubmed.ncbi.nlm.nih.gov/20167803/
[8] = target: Centromere-associated protein E (Homo sapiens) (UniProt Q02224); assay: Affinity Phenotypic Cellular interaction: (Cell-growth inhibition assays (growth inhibitory effect colon cancer cell line MV-4-11)) EUB0000734a CENPE; settings: MV4-11, Affinity Phenotypic Cellular Source Knowledge https://pubmed.ncbi.nlm.nih.gov/20167803/
[9] = target: Centromere-associated protein E (Homo sapiens) (UniProt Q02224); assay: Affinity Phenotypic Cellular interaction: (Cell-growth inhibition assays (growth inhibitory effect colon cancer cell line WiDr)) EUB0000734a CENPE; settings: Affinity Phenotypic Cellular Source Knowledge https://pubmed.ncbi.nlm.nih.gov/20167803/
[10] = target: Centromere-associated protein E (Homo sapiens) (UniProt Q02224); assay: Affinity Phenotypic Cellular interaction: (Cell-growth inhibition assays (growth inhibitory effect colon cancer cell line SW1990)) EUB0000734a CENPE; settings: Affinity Phenotypic Cellular Source Knowledge https://pubmed.ncbi.nlm.nih.gov/20167803/
[11] = target: Centromere-associated protein E (Homo sapiens) (UniProt Q02224); assay: Affinity Phenotypic Cellular interaction: (Cell-growth inhibition assays (growth inhibitory effect colon cancer cell line SK-MEL-3)) EUB0000734a CENPE; settings: SK-MEL3, Affinity Phenotypic Cellular Source Knowledge https://pubmed.ncbi.nlm.nih.gov/20167803/
[12] = target: Centromere-associated protein E (Homo sapiens) (UniProt Q02224); assay: Affinity Phenotypic Cellular interaction: (Cell-growth inhibition assays (growth inhibitory effect colon cancer cell line T24)) EUB0000734a CENPE; settings: T-24, Affinity Phenotypic Cellular Source Knowledge https://pubmed.ncbi.nlm.nih.gov/20167803/
[13] = target: Centromere-associated protein E (Homo sapiens) (UniProt Q02224); assay: Affinity Phenotypic Cellular interaction: (Cell-growth inhibition assays (growth inhibitory effect colon cancer cell line SNU-449)) EUB0000734a CENPE; settings: Affinity Phenotypic Cellular Source Knowledge https://pubmed.ncbi.nlm.nih.gov/20167803/
[14] = target: Centromere-associated protein E (Homo sapiens) (UniProt Q02224); assay: Affinity Phenotypic Cellular interaction: (Cell-growth inhibition assays (growth inhibitory effect colon cancer cell line SK-NEP-1)) EUB0000734a CENPE; settings: Affinity Phenotypic Cellular Source Knowledge https://pubmed.ncbi.nlm.nih.gov/20167803/
[15] = target: Centromere-associated protein E (Homo sapiens) (UniProt Q02224); assay: Affinity Phenotypic Cellular interaction: (Cell-growth inhibition assays (growth inhibitory effect colon cancer cell line G-402)) EUB0000734a CENPE; settings: Affinity Phenotypic Cellular Source Knowledge https://pubmed.ncbi.nlm.nih.gov/20167803/
[16] = target: Centromere-associated protein E (Homo sapiens) (UniProt Q02224); assay: Affinity Phenotypic Cellular interaction: (Cell-growth inhibition assays (growth inhibitory effect colon cancer cell line RD)) EUB0000734a CENPE; settings: Affinity Phenotypic Cellular Source Knowledge https://pubmed.ncbi.nlm.nih.gov/20167803/
[17] = target: Centromere-associated protein E (Homo sapiens) (UniProt Q02224); assay: Affinity Phenotypic Cellular interaction: (Cell-growth inhibition assays (growth inhibitory effect colon cancer cell line CAL-62)) EUB0000734a CENPE; settings: Affinity Phenotypic Cellular Source Knowledge https://pubmed.ncbi.nlm.nih.gov/20167803/
[18] = target: Centromere-associated protein E (Homo sapiens) (UniProt Q02224); assay: Affinity Phenotypic Cellular interaction: (Cell-growth inhibition assays (growth inhibitory effect colon cancer cell line ES-2)) EUB0000734a CENPE; settings: Affinity Phenotypic Cellular Source Knowledge https://pubmed.ncbi.nlm.nih.gov/20167803/
[19] = target: Centromere-associated protein E (Homo sapiens) (UniProt Q02224); assay: Affinity Phenotypic Cellular interaction: (Cell-growth inhibition assays (growth inhibitory effect colon cancer cell line DoTc2-4510)) EUB0000734a CENPE; settings: Affinity Phenotypic Cellular Source Knowledge https://pubmed.ncbi.nlm.nih.gov/20167803/
[20] = target: Centromere-associated protein E (Homo sapiens) (UniProt Q02224); assay: Affinity Phenotypic Cellular interaction: (Cell-growth inhibition assays (growth inhibitory effect colon cancer cell line MDA-MB-435)) EUB0000734a CENPE; settings: Affinity Phenotypic Cellular Source Knowledge https://pubmed.ncbi.nlm.nih.gov/20167803/
[21] = target: Centromere-associated protein E (Homo sapiens) (UniProt Q02224); assay: Affinity Phenotypic Cellular interaction: (Cell-growth inhibition assays (growth inhibitory effect colon cancer cell line RL)) EUB0000734a CENPE; settings: Affinity Phenotypic Cellular Source Knowledge https://pubmed.ncbi.nlm.nih.gov/20167803/
[22] = target: Centromere-associated protein E (Homo sapiens) (UniProt Q02224); assay: Affinity Phenotypic Cellular interaction: (Cell-growth inhibition assays (growth inhibitory effect colon cancer cell line SNU-475)) EUB0000734a CENPE; settings: Affinity Phenotypic Cellular Source Knowledge https://pubmed.ncbi.nlm.nih.gov/20167803/
[23] = target: Centromere-associated protein E (Homo sapiens) (UniProt Q02224); assay: Affinity Phenotypic Cellular interaction: (Cell-growth inhibition assays (growth inhibitory effect colon cancer cell line COLO205)) EUB0000734a CENPE; settings: COLO 205, Affinity Phenotypic Cellular Source Knowledge https://pubmed.ncbi.nlm.nih.gov/20167803/
[24] = target: Centromere-associated protein E (Homo sapiens) (UniProt Q02224); assay: Affinity Phenotypic Cellular interaction: (Cell-growth inhibition assays (growth inhibitory effect colon cancer cell line DB)) EUB0000734a CENPE; settings: Affinity Phenotypic Cellular Source Knowledge https://pubmed.ncbi.nlm.nih.gov/20167803/
[25] = target: Centromere-associated protein E (Homo sapiens) (UniProt Q02224); assay: Affinity Phenotypic Cellular interaction: (Cell-growth inhibition assays (growth inhibitory effect colon cancer cell line OV-90)) EUB0000734a CENPE; settings: Affinity Phenotypic Cellular Source Knowledge https://pubmed.ncbi.nlm.nih.gov/20167803/
[26] = target: Centromere-associated protein E (Homo sapiens) (UniProt Q02224); assay: Affinity Phenotypic Cellular interaction: (Cell-growth inhibition assays (growth inhibitory effect sarcoma cancer cell line TE381.T)) EUB0000734a CENPE; settings: TE 381.T, Affinity Phenotypic Cellular Source Knowledge https://pubmed.ncbi.nlm.nih.gov/20167803/
[27] = target: Centromere-associated protein E (Homo sapiens) (UniProt Q02224); assay: Affinity Phenotypic Cellular interaction: (Cell-growth inhibition assays (growth inhibitory effect colon cancer cell line HCT-8)) EUB0000734a CENPE; settings: Affinity Phenotypic Cellular Source Knowledge https://pubmed.ncbi.nlm.nih.gov/20167803/
[28] = target: Centromere-associated protein E (Homo sapiens) (UniProt Q02224); assay: Affinity Phenotypic Cellular interaction: (Cell-growth inhibition assays (growth inhibitory effect colon cancer cell line C-4I)) EUB0000734a CENPE; settings: Affinity Phenotypic Cellular Source Knowledge https://pubmed.ncbi.nlm.nih.gov/20167803/
[29] = target: Centromere-associated protein E (Homo sapiens) (UniProt Q02224); assay: Affinity Phenotypic Cellular interaction: (Cell-growth inhibition assays (growth inhibitory effect colon cancer cell line HeLa)) EUB0000734a CENPE; settings: Affinity Phenotypic Cellular Source Knowledge https://pubmed.ncbi.nlm.nih.gov/20167803/
[30] = target: Centromere-associated protein E (Homo sapiens) (UniProt Q02224); assay: Affinity Phenotypic Cellular interaction: (Cell-growth inhibition assays (growth inhibitory effect colon cancer cell line HOS)) EUB0000734a CENPE; settings: Affinity Phenotypic Cellular Source Knowledge https://pubmed.ncbi.nlm.nih.gov/20167803/
[31] = target: Centromere-associated protein E (Homo sapiens) (UniProt Q02224); assay: Affinity Phenotypic Cellular interaction: (Cell-growth inhibition assays (growth inhibitory effect colon cancer cell line PC-3)) EUB0000734a CENPE; settings: Affinity Phenotypic Cellular Source Knowledge https://pubmed.ncbi.nlm.nih.gov/20167803/
[32] = target: Centromere-associated protein E (Homo sapiens) (UniProt Q02224); assay: Affinity Phenotypic Cellular interaction: (Cell-growth inhibition assays (growth inhibitory effect colon cancer cell line HCC1954)) EUB0000734a CENPE; settings: Affinity Phenotypic Cellular Source Knowledge https://pubmed.ncbi.nlm.nih.gov/20167803/
[33] = target: Centromere-associated protein E (Homo sapiens) (UniProt Q02224); assay: Affinity Phenotypic Cellular interaction: (Cell-growth inhibition assays (growth inhibitory effect colon cancer cell line CAL-54)) EUB0000734a CENPE; settings: Affinity Phenotypic Cellular Source Knowledge https://pubmed.ncbi.nlm.nih.gov/20167803/
[34] = target: Centromere-associated protein E (Homo sapiens) (UniProt Q02224); assay: Affinity Phenotypic Cellular interaction: (Cell-growth inhibition assays (growth inhibitory effect lung cancer cell line MV522)) EUB0000734a CENPE; settings: MV-522, Affinity Phenotypic Cellular Source Knowledge https://pubmed.ncbi.nlm.nih.gov/20167803/
[35] = target: Centromere-associated protein E (Homo sapiens) (UniProt Q02224); assay: Affinity Phenotypic Cellular interaction: (Cell-growth inhibition assays (growth inhibitory effect colon cancer cell line MOLT-16)) EUB0000734a CENPE; settings: Affinity Phenotypic Cellular Source Knowledge https://pubmed.ncbi.nlm.nih.gov/20167803/
[36] = target: Centromere-associated protein E (Homo sapiens) (UniProt Q02224); assay: Affinity Phenotypic Cellular interaction: (Cell-growth inhibition assays (growth inhibitory effect colon cancer cell line BC-3)) EUB0000734a CENPE; settings: Affinity Phenotypic Cellular Source Knowledge https://pubmed.ncbi.nlm.nih.gov/20167803/
[37] = target: Centromere-associated protein E (Homo sapiens) (UniProt Q02224); assay: Affinity Phenotypic Cellular interaction: (Cell-growth inhibition assays (growth inhibitory effect colon cancer cell line LNCaP)) EUB0000734a CENPE; settings: Affinity Phenotypic Cellular Source Knowledge https://pubmed.ncbi.nlm.nih.gov/20167803/

Chain of Centromere-associated protein E (Homo sapiens) (Q02224 whole entry): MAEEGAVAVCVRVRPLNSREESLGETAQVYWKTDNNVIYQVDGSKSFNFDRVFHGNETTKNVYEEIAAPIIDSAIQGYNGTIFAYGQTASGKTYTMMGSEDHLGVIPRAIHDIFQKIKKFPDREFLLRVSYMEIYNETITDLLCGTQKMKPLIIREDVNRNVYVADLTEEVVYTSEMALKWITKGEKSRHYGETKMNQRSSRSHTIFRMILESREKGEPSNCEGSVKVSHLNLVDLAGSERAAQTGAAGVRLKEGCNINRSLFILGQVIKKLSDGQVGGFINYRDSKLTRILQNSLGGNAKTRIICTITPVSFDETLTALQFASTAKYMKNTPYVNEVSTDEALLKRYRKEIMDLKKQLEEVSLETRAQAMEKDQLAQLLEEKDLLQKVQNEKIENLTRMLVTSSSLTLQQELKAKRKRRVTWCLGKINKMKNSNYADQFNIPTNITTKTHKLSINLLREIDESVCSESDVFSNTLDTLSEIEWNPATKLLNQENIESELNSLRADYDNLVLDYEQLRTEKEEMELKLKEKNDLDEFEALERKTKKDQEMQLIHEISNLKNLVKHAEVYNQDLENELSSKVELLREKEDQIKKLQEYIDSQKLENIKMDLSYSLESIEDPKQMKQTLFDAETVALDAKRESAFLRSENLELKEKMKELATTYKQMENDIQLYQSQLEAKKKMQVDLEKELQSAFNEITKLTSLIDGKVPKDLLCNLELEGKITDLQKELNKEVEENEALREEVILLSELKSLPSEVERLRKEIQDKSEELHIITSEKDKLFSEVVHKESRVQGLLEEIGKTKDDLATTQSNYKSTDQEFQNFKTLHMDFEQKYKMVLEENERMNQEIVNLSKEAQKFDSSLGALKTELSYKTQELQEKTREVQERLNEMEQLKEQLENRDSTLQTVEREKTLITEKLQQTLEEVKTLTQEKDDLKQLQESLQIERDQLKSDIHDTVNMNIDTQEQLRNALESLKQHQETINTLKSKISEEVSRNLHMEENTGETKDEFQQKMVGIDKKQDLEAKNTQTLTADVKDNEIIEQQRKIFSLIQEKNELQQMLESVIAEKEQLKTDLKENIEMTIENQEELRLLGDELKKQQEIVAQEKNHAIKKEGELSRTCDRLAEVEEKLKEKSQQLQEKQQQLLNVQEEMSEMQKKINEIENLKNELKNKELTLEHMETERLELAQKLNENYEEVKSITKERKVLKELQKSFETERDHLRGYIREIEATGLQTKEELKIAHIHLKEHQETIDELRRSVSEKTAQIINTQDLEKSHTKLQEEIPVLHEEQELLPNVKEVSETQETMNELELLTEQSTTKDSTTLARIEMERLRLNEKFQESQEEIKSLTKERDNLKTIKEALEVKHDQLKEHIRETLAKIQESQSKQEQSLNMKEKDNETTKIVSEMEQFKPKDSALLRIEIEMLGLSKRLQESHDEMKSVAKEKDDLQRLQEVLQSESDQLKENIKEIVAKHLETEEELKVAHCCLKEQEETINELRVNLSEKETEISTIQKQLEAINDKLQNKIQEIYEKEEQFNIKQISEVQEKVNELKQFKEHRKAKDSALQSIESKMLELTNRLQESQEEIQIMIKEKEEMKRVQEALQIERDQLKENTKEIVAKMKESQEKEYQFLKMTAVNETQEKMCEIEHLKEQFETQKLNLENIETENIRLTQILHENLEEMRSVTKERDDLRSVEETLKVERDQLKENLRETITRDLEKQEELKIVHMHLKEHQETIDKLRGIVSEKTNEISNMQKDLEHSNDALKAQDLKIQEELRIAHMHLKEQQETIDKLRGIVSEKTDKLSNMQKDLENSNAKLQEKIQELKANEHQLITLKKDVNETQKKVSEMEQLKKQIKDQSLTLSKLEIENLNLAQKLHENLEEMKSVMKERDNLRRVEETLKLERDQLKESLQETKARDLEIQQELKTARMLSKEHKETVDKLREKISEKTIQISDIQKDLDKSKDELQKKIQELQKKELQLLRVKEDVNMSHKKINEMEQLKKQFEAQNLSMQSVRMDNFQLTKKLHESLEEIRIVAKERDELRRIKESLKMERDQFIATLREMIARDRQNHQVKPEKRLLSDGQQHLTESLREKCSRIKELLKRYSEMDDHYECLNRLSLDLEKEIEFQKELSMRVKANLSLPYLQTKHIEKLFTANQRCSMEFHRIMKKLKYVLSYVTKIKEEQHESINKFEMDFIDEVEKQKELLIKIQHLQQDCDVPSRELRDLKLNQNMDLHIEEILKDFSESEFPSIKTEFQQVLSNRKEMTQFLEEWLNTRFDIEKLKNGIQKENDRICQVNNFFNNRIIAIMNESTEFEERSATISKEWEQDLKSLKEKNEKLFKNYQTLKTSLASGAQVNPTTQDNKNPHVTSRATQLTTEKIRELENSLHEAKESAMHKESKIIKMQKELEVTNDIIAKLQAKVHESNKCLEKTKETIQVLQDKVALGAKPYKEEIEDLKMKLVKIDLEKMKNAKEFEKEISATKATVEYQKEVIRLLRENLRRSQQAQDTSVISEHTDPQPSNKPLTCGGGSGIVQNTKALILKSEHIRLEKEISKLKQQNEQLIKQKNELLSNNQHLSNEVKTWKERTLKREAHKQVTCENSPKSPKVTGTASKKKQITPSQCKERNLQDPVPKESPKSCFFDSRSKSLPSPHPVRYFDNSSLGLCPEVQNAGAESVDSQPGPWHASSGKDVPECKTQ

GIC50 [1]: 29 nM
GIC50 [2]: 13 nM
GIC50 [3]: 45 nM
GIC50 [4]: 26 nM
GIC50 [5]: 25 nM
GIC50 [6]: 23 nM
GIC50 [7]: 29 nM
GIC50 [8]: 29 nM
GIC50 [9]: 18 nM
GIC50 [10]: 127 nM
GIC50 [11]: 30 nM
GIC50 [12]: 45 nM
GIC50 [13]: 236 nM
GIC50 [14]: 55 nM
GIC50 [15]: 31 nM
GIC50 [16]: 28 nM
GIC50 [17]: 30 nM
GIC50 [18]: 30 nM
GIC50 [19]: 33 nM
GIC50 [20]: 30 nM
GIC50 [21]: 37 nM
GIC50 [22]: 26 nM
GIC50 [23]: 25 nM
GIC50 [24]: 21 nM
GIC50 [25]: 61 nM
GIC50 [26]: 27 nM
GIC50 [27]: 35 nM
GIC50 [28]: 42 nM
GIC50 [29]: 20 nM
GIC50 [30]: 27 nM
GIC50 [31]: 28 nM
GIC50 [32]: 18 nM
GIC50 [33]: 49 nM
GIC50 [34]: 48 nM
GIC50 [35]: 47 nM
GIC50 [36]: 88 nM
GIC50 [37]: 76 nM
Structure (SMILES): CC(C)Oc1ccc(C(=O)N[C@H](CNC(=O)CN(C)C)Cc2ccc(-c3cn4cccc([C@H](C)O)c4n3)cc2)cc1Cl
